Key:
Type in all cases: cell-based
HepG2 cells = assay: Insulin-stimulated [14C]glucose conversion to glycogen in HepG2 cells with varying LPC; conditions: 100 nM insulin, under reduced levels of lysophosphatidylcholine, FIG. 5(a)
Description: (§1) Effects of LPC on glucose metabolism were assessed using (a) HepG2 cells as a model of liver cells, (b) differentiated L6 myotubes as a model of skeletal muscle cells and (c) differentiated 3T3L1 cells as a model of adipocytes. To assess usage of glucose for glycogen biosynthesis, cells were incubated in Krebs Ringer Hepes medium with 5 mM [^14C]glucose, 100 nM insulin, and varying concentrations of LPC. At the end of the incubation period, the cells were washed and detached from the plates with 30% KOH. Carrier glycogen was then added to the cell lysate at a concentration of 40 mg/ml and then boiled for 30 min. Glycogen was precipitated from the solution by the addition of 800 μl 95% ice-cold ethanol and centrifuged at 1000×g. The pellet was re-suspended in buffer, and an aliquot of the sample was counted in a scintillation counter to determine the amount of [^14C]glucose converted to glycogen. Glucose metabolism by differentiated 3T3L1 cells was assessed based on cellular uptake of [^3H]deoxyglucose. The 3T3L1 cells were incubated in Krebs Ringer Hepes medium with 5 mM [^3H]deoxyglucose, 100 nM insulin, and varying concentration of LPC. Glucose uptake was assessed based on cellular accumulation of [^3H]deoxyglucose after a 30 min incubation period.

L6 myotube = assay: Insulin-stimulated [14C]glucose conversion to glycogen in differentiated L6 myotubes with varying LPC; conditions: 100 nM insulin, under reduced levels of lysophosphatidylcholine, FIG. 5(b)
Description: as §1

3T3L1 adipocytes = assay: Insulin-stimulated [3H]deoxyglucose uptake in differentiated 3T3L1 adipocytes with varying LPC; conditions: 100 nM insulin, 30 min, under reduced levels of lysophosphatidylcholine, FIG. 5(c)
Description: as §1

Measured: insulin-stimulated glucose metabolism

lysophosphatidylcholine
increased: HepG2 cells | L6 myotube | 3T3L1 adipocytes

— patent publication US20050288255A1, “Modulation of lysophosphatidylcholine and treatment of diet-induced conditions” (priority 2004, published 2005)
